In patent publication US20060116328A1, “Combined use of carnosinase inhibitor with l-carnosines and composition” (priority 2003, published 2006):
One block for each compound: values may come before it. Peptide text beside a SMILES is read from it.

Key:
tissue carnosinase = biological target: T1, tissue carnosinase (Rattus norvegicus, UniProt Q6Q0N1); assay: Hydrolysis of L-carnosine and related substance with tissue carnosinase in the absence or presence of a carnosinase inhibitor; type: biochemical, male Hairless rats; conditions: pH 7.0, 37° C.
T1 construct: Partially purified tissue carnosinase as a solution in 0.1M phosphate buffer (pH 7.0) is prepared from the crude brain extracts; from tissue; host or cells: brain of male Hairless rats
T1 sequence (Q6Q0N1 1-475): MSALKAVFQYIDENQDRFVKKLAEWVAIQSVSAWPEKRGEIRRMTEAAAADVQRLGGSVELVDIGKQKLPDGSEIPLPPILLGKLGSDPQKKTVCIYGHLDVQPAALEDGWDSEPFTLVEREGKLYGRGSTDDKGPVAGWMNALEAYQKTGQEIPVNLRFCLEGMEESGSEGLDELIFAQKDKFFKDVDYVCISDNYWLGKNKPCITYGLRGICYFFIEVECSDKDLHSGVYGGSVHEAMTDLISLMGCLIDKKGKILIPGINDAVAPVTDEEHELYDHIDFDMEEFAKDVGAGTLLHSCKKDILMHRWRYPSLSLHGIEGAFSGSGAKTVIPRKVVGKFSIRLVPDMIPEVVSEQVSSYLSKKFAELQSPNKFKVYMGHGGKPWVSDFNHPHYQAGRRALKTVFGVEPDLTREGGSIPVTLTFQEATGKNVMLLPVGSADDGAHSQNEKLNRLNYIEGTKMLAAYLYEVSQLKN
Protocol: Partially purified tissue carnosinase as a solution in 0.1M phosphate buffer (pH 7.0) is prepared from the crude brain extracts of male Hairless rats by a reported procedure (Y. Courbebaisse, G. Langrand, J -F. Nicolay and M. A. Babizhayev, Proceeding of 19th IFSCC Congress, Australia, Vol. 3, 1996, p. 1-12; M. A. Babizhayev et al., Letters in Peptide Science, Vol. 5, 163, 1998). A solution of the substrate (450 μl) in 0.1M phosphate buffer (pH 7.0) is incubated with the diluted enzyme solution (50 μl) at 37° C. for 120 min. in the absence or in the presence of a carnosinase inhibitor. Portions of the reaction mixture are taken at the time points of 0, 2, 3, 4, 5, 10, 20, 40, 60 min and dansylated with dansyl chloride (5 mg of dansyl chloride/ml of acetonitrile solution) at 50° C. for 15 min. The each portion is subjected to HPLC analysis on a column C18DB using a gradient method (A=0.02N acetic acid/acetonitrile, 90/10; B=acetonitrile). The rate of the peptide hydrolysis is determined by following the decrease of the area under the curve (AUC) of the dansylated substrate.

cells = conditions: L-carnosine supplementation of tissue cultures; cited from earlier work
mice = mice supplemented with L-carnosine; cited from earlier work
skin = assay: Cosmetic liposome composition applied on the skin of elderly volunteers; type: in vivo, human; conditions: 10 elderly subjects, applied on the skin twice daily for 15 days
solid tumor cell lines = assay: Growth inhibition and induction of apoptosis in solid tumor cell lines; type: cell-based
Protocol: The experimental design, details of experimental procedure and human leukemia cell lines were essentially the same as those reported by Sekine et al. (Int. J. Cancer, Vol. 94, 485, 2001). The carnosinase inhibitor bestatine was used in the range of 5-15 μg/ml of concentration and the concentration of the applied carnosine varied from 5-20 mM . […] Our study was performed with this combination to examine whether bestatin+carnosine can also induce apoptosis in solid tumor cell lines.

[1] = substrate L-Carnosine 0.08 mM + inhibitor 0.5 mM

rate of hydrolysis (tissue carnosinase; [1]): 6e-06 mol/min
Compound: NCC(=O)N[C@@H](Cc1cnc[nH]1)C(=O)O [Gly-L-His] (H-Gly-His-OH)

rate of hydrolysis (tissue carnosinase; L-Carnosine 0.08 mM + L-carnosine 0.3 mM (blank test)): 7.8e-05 mol/min
rate of hydrolysis (tissue carnosinase; substrate L-Carnosine 0.08 mM alone (blank test)): 3.4e-05 mol/min
rate of hydrolysis (tissue carnosinase; substrate L-Carnosine 0.3 mM alone (blank test)): 7.8e-05 mol/min
Compound: NCCC(=O)N[C@@H](Cc1c[nH]cn1)C(=O)O [L-Carnosine, β-alanyl-L-histidine]
increase in cellular life span (cells): 67%
average life span longer than non-treated mice (mice): 20%
skin pigmentation (skin): only a little whitening activity

rate of hydrolysis (tissue carnosinase; [1]): 9e-06 mol/min
Compound: O=C(O)[C@H](Cc1cnc[nH]1)NC(=O)[C@@H]1CCCN1 [L-Pro-L-His]

rate of hydrolysis (tissue carnosinase; substrate N-Acetyl-L-carnosine 0.08 mM alone (blank test)): 1e-06 mol/min
Compound: CC(=O)NCCC(=O)N[C@@H](Cc1cnc[nH]1)C(=O)O [N-Acetyl-L-carnosine, N-acetyl-L-carnosine]

rate of hydrolysis (tissue carnosinase; [1]): 3e-06 mol/min
rate of hydrolysis (tissue carnosinase; substrate N-Acetyl-L-carnosine 0.08 mM + inhibitor 0.5 mM): 3.5e-07 mol/min
Compound: CC(=O)NCCC(=O)O [N-acetyl-β-alanine]

Compound: COC(=O)[C@H](CC(C)C)NC(=O)[C@@H](O)[C@H](N)Cc1ccccc1 [bestatin methyl ester]
cell growth (solid tumor cell lines; used with L-carnosine, compared with L-carnosine only): inhibited cell growth more clearly than the case where only L-carnosine is used

rate of hydrolysis (tissue carnosinase; substrate L-Carnosine 0.08 mM + inhibitor 0.5 nM): 2e-06 mol/min
Compound: CC(C)C[C@H](NC(=O)[C@@H](O)[C@H](N)Cc1ccccc1)C(=O)O [bestatine, bestatin, reference compound]
growth inhibition and induction of apoptosis (solid tumor cell lines; bestatine 5-15 μg/ml, carnosine 5-20 mM): neither direct growth inhibition nor induction of apoptosis

rate of hydrolysis (tissue carnosinase; [1]): 5e-06 mol/min
rate of hydrolysis (tissue carnosinase; substrate L-Carnosine 0.3 mM + inhibitor 0.5 mM): 5.4e-05 mol/min
Compound: NCCC(=O)O [β-alanine]

rate of hydrolysis (tissue carnosinase; [1]): 4.5e-06 mol/min
Compound: NCCCC(=O)NCCc1c[nH]cn1 [γ-aminobutyryl-histamine, γ-aminobutyrylhistamine]
